Results as given in patent publication US20240116921A1, “LACTAM (HETERO)[…] DERIVATIVES AS INHIBITORS OF ERBB2” (EnLiven Therapeutics, Inc., priority 2020, published 2024).
pIC50: −log10 of the molar value. Read-outs that look alike come from different tables or passages of the source.

Legend:
[1] = molecular target: Ba/F3 ERBB2-L869R (Homo sapiens, UniProt P04626, L869R, cells depend on it); experiment: Cell viability assay, Ba/F3 ERBB2-L869R; format: cell-based, mouse; settings: 72 hours, CellTiter Glo, read-out: IC50, cell viability, Ba/F3 ERBB2-L869R
Protocol: (§1) Cells were treated with compounds, and cell viability was measured as a metric of kinase inhibition.
(§2) The Ba/F3 cell line is IL-3-dependent mouse cell line derived from the C3H mouse strain. Ba/F3 cell lines were engineered to express human ERBB2 or EGFR kinases, rendering the cells IL-3 independent. The lines were generated via retroviral transduction utilizing a Moloney murine leukemia virus (MMLV) promoter, and constructs are stably integrated into the cell genome. The sequences of the ERBB2 and EGFR genes used were NCBI Reference Sequences NM_004448.3 and NM_005228.3, respectively.
(§3) Similarly, Ba/F3 cell lines engineered to express EGFR, ERBB2, or ERBB2 mutants were grown, harvested, counted and seeded at 3000 cells per well in 96-well plates. A subset of wells contained media only (low control, “LC”).
(§4) Table B1 provides the growth media and number of cells seeded per well for the each cell line.
(§5) Plates were placed in a 37° C., 5% CO2 incubator for 72 hours. Plates were then removed from the incubator and equilibrated for 15 minutes at room temperature. 40 μl of CellTiter Glo reagent (Promega) was added to measure the relative level of metabolically active cells by quantifying intracellular ATP concentrations. Plates were incubated for 30 minutes at room temperature, and luminescence was measured. Percent viability was normalized to a vehicle control only using the following formula: % viability=100×(Lumsample−LumLC)/(LumHC−Lum^LC). Graphical curves were fitted using a nonlinear regression model with a sigmoidal dose response.

[2] = molecular target: Ba/F3 ERBB2-V777_G778insGC (Homo sapiens, UniProt P04626, INS778CG, cells depend on it); experiment: Cell viability assay, Ba/F3 ERBB2-V777_G778insGC; format: cell-based, mouse; settings: 72 hours, CellTiter Glo, read-out: IC50, cell viability, Ba/F3 ERBB2-V777_G778insGC
Protocol: as §1, §2, §3, §4, §5

[3] = molecular target: Ba/F3 ERBB2-L755S (Homo sapiens, UniProt P04626, L755S, cells depend on it); experiment: Cell viability assay, Ba/F3 ERBB2-L755S; format: cell-based, mouse; settings: 72 hours, CellTiter Glo, read-out: IC50, cell viability, Ba/F3 ERBB2-L755S
Protocol: as §1, §2, §3, §4, §5

[4] = molecular target: Ba/F3 ERBB2-P780_Y781insGSP (Homo sapiens, UniProt P04626, DUP778-780, cells depend on it); experiment: Cell viability assay, Ba/F3 ERBB2-P780_Y781insGSP; format: cell-based, mouse; settings: 72 hours, CellTiter Glo, read-out: IC50, cell viability, Ba/F3 ERBB2-P780_Y781insGSP
Protocol: as §1, §2, §3, §4
as §5, with “Percent viability was normalized to a vehicle control only using the following formula: % viability=100×(Lumsample−LumLC)/(LumHC−Lum^LC).” left out

[5] = molecular target: Ba/F3 ERBB2-T798M (Homo sapiens, UniProt P04626, T798M, cells depend on it); experiment: Cell viability assay, Ba/F3 ERBB2-T798M; format: cell-based, mouse; settings: 72 hours, CellTiter Glo, read-out: IC50, cell viability, Ba/F3 ERBB2-T798M
Protocol: as §1, §2, §3, §4, §5

[6] = test system: BT-474; experiment: Cell viability assay (CellTiter Glo), BT-474; format: cell-based; settings: Homo sapiens, read-out: IC50, cell viability, BT-474
[7] = molecular target: Ba/F3 ERBB2 wt (Homo sapiens, UniProt P04626); experiment: Cell viability assay, Ba/F3 ERBB2 wt; format: cell-based, mouse; settings: Ba/F3 ERBB2 wt cells, 72 hours, CellTiter Glo; read-out: IC50, cell viability, Ba/F3 ERBB2 wt
Protocol: as §1, §2, §3, §4, §5

[8] = molecular target: Ba/F3 ERBB2-V777L (Homo sapiens, UniProt P04626, V777L, cells depend on it); experiment: Cell viability assay, Ba/F3 ERBB2-V777L; format: cell-based, mouse; settings: 72 hours, CellTiter Glo, read-out: IC50, cell viability, Ba/F3 ERBB2-V777L
Protocol: as §1, §2, §3, §4, §5

[9] = molecular target: Ba/F3 ERBB2 A775_G776insYVMA (Homo sapiens, UniProt P04626, DUP772-775, cells depend on it); experiment: Cell viability assay, Ba/F3 ERBB2 A775_G776insYVMA; format: cell-based, mouse; settings: Ba/F3 ERBB2 A775_G776insYVMA cells, 72 hours, CellTiter Glo; Tables B2-B4; read-out: IC50, cell viability, Ba/F3 ERBB2 A775_G776insYVMA
Procedure, shortened: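 IL-3-independent Ba/F3 lines stably expressing the human ERBB2 insertion mutants were seeded at 3000 cells/well and exposed to compounds for 72 h at 37 °C, 5% CO2. Viability was read as ATP by CellTiter-Glo luminescence. Curves were fitted by sigmoidal nonlinear regression.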

[10] = molecular target: Ba/F3 ERBB2-G776VC (Homo sapiens, UniProt P04626, DELINS776-776VC, cells depend on it); experiment: Cell viability assay, Ba/F3 ERBB2-G776VC; format: cell-based, mouse; settings: 72 hours, CellTiter Glo, read-out: IC50, cell viability, Ba/F3 ERBB2-G776VC
Protocol: as §1, §2, §3, §4, §5

[11] = test system: A431; experiment: Cell viability assay (CellTiter Glo), A431; format: cell-based; settings: Homo sapiens, A-431, A431 cells, 72 hours
[12] = molecular target: T1, phosphorylated ERBB2 (pERBB2) (Homo sapiens, UniProt P04626); experiment: Detection of phosphorylated ERBB2 (pERBB2) by ELISA in BT-474 cells; format: cell-based; settings: four hours incubation
T1 construct: endogenous in cells; host or cells: BT-474
Procedure, shortened: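 BT-474 cells (2.0×10^4/well) treated 4 h at 37 °C, 5% CO2 with compounds in four-fold dilutions from 10 µM to 0.01 nM. Lysate pERBB2 measured by ELISA with TMB read at 450 nm; % relative activity scaled between no-cell wells and 0.1% DMSO-treated cells.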

[13] = test system: MDA-MB-175VII; experiment: Cell viability assay (CellTiter Glo), MDA-MB-175VII; format: cell-based; settings: Homo sapiens, read-out: IC50, cell viability, MDA MB 175VII
Protocol: as §1, §2, §3, §4, §5

[14] = molecular target: Ba/F3 EGFR wt (Homo sapiens, UniProt P00533); experiment: Cell viability assay, Ba/F3 EGFR wt; format: cell-based, mouse; settings: Ba/F3 EGFR wt cells, 72 hours, CellTiter Glo; read-out: IC50, cell viability, Ba/F3 EGFR wt
Protocol: as §1, §2, §3, §4
Plates were placed in a 37° C., 5% CO2 incubator for 72 hours. Plates were then removed from the incubator and equilibrated for 15 minutes at room temperature. 40 μl of CellTiter Glo reagent (Promega) was added to measure the relative level of metabolically active cells by quantifying intracellular ATP concentrations. Plates were incubated for 30 minutes at room temperature, and luminescence was measured. […]

[15] = BT-474 cells, 72 hours, CellTiter Glo

Chain of Ba/F3 ERBB2 A775_G776insYVMA (P04626 with tags, fused parts or gaps DUP772-775): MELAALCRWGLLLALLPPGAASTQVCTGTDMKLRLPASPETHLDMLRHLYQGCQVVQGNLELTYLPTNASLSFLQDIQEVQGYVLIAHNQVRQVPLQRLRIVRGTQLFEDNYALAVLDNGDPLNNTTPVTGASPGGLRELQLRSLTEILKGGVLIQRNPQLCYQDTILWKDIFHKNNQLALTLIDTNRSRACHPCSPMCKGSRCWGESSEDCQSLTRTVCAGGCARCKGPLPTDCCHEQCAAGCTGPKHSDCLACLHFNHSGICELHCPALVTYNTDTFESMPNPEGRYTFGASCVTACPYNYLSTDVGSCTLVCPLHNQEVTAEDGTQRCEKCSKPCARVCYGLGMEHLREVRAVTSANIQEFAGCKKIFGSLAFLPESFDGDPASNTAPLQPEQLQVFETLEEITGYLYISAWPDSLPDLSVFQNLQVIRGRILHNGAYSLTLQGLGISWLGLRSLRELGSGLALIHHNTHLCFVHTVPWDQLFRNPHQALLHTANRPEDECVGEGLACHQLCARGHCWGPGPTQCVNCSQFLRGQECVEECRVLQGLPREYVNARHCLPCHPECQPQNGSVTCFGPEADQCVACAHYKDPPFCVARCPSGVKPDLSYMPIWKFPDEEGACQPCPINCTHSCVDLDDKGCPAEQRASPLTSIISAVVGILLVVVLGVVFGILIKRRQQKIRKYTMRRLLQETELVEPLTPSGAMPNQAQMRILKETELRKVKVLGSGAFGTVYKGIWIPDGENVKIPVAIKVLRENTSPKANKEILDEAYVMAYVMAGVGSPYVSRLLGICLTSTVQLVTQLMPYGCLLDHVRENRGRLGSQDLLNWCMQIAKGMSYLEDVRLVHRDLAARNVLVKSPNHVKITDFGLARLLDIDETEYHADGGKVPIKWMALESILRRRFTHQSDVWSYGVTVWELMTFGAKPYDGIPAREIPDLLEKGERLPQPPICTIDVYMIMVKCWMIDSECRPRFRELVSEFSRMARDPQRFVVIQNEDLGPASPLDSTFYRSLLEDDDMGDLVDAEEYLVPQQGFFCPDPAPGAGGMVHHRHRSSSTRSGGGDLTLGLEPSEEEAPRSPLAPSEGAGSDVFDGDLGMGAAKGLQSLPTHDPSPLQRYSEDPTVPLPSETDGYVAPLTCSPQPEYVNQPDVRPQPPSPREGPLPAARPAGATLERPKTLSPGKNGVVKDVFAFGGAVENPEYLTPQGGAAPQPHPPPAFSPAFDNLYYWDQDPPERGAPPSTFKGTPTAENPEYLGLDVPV
T1 sequence (P04626 23-1255): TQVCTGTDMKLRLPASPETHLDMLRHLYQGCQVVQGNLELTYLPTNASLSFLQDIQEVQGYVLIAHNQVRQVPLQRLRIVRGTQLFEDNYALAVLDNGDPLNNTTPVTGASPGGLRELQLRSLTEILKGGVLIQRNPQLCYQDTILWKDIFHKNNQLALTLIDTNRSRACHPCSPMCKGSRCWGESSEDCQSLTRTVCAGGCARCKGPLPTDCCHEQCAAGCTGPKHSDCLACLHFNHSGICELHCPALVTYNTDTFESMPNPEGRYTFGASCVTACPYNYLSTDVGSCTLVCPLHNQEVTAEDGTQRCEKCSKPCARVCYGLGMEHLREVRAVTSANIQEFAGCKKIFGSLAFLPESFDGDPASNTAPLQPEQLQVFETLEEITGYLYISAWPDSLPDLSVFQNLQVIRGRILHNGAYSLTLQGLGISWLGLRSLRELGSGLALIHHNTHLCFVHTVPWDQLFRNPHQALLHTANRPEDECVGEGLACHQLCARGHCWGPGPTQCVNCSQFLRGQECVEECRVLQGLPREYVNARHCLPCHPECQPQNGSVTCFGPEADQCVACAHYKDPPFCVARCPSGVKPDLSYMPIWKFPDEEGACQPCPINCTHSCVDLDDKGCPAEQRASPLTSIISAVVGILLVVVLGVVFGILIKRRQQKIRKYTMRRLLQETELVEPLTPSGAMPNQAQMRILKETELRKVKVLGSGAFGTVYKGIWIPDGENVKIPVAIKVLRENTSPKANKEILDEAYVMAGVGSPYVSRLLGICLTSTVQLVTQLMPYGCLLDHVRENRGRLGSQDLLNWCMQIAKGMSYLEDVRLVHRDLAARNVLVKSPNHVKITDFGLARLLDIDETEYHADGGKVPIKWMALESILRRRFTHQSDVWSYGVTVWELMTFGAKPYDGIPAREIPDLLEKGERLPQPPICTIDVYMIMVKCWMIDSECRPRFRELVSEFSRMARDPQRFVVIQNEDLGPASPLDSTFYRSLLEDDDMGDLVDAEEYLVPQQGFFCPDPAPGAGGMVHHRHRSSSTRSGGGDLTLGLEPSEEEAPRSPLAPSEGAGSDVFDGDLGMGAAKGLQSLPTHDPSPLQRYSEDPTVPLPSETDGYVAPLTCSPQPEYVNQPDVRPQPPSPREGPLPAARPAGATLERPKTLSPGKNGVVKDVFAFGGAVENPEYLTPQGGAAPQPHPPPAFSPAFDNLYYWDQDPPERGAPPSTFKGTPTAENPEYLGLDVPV
Chain of Ba/F3 ERBB2-V777_G778insGC (P04626 with tags, fused parts or gaps INS778CG): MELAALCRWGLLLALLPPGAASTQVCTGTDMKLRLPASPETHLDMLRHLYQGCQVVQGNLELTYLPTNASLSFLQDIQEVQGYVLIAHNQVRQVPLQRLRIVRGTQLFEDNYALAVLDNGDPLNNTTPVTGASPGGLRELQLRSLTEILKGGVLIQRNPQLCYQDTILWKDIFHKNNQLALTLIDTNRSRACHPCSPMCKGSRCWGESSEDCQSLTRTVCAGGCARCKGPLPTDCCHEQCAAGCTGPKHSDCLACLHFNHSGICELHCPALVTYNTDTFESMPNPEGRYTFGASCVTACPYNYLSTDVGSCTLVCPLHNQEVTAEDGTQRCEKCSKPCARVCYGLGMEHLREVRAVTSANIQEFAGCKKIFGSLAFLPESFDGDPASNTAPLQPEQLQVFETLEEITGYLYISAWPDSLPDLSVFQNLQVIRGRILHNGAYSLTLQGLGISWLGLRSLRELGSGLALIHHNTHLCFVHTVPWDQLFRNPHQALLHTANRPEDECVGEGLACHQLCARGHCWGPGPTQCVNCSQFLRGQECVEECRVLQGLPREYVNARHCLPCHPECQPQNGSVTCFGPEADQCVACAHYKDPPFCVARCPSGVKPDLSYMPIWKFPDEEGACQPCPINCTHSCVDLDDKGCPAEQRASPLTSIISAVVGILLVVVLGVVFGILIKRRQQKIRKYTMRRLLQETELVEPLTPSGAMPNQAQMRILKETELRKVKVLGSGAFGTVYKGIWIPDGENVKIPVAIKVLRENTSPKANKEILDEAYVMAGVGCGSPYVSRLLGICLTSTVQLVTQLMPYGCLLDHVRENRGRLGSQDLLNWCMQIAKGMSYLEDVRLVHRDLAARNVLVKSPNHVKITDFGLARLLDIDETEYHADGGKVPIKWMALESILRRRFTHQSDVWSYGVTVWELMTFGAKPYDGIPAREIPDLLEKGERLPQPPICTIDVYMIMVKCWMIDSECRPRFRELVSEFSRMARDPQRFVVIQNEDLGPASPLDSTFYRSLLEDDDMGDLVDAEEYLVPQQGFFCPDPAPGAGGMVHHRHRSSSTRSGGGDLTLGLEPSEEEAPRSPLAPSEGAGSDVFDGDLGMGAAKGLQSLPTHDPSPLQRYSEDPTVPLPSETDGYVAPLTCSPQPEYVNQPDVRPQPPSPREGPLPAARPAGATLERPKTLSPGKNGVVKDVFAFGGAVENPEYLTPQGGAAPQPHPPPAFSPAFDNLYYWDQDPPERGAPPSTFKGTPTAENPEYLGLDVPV
Chain of Ba/F3 ERBB2-L755S (P04626 whole entry L755S): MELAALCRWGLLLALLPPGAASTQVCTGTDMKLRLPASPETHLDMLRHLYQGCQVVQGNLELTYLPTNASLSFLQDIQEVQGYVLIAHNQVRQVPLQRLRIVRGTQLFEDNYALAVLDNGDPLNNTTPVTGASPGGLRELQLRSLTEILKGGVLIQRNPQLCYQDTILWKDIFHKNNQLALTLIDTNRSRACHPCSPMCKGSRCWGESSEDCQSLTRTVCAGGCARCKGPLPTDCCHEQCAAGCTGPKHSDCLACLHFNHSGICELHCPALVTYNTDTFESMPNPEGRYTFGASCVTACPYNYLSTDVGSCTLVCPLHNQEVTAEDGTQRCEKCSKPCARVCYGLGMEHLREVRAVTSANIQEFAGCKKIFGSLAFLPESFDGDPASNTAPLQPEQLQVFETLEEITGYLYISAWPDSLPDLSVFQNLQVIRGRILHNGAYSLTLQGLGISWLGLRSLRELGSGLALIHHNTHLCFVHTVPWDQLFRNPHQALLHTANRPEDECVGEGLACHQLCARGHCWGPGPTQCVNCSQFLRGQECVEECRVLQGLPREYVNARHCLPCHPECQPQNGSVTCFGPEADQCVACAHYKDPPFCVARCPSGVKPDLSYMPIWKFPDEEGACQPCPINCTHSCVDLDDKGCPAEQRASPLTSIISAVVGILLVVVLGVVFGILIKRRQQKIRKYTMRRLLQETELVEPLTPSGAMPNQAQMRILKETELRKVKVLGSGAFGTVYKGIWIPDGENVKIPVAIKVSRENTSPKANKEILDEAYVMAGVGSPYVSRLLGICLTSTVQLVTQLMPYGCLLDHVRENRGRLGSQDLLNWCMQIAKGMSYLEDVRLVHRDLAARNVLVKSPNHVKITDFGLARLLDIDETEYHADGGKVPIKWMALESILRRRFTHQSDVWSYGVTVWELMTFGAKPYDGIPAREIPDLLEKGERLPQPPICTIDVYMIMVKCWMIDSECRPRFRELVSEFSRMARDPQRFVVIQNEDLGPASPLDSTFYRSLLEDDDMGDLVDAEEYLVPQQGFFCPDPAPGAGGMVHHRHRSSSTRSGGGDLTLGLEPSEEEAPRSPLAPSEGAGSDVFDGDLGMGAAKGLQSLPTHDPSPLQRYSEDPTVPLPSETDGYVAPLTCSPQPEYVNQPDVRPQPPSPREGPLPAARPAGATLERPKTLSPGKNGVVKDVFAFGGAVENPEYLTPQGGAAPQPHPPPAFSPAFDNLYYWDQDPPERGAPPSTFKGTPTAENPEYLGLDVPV

| Structure (SMILES) | pIC50 [6, 15] | GI50 [9] [nM] | pIC50 [11] | further results |
| --- | --- | --- | --- | --- |
| C=C1CCN(c2ccc3ncnc(Nc4ccc(Oc5ccc(C)nc5)c(C)c4)c3c2)C1=O [Compound 3, 1-[4-([3-methyl-4-[(6-methylpyridin-3-yl)oxy]phenyl]amino)quinazolin-6-yl]-3-methylidenepyrrolidin-2-one] | 7.71 | 202 | 5.94 | GI50 [1]: 47 nM; GI50 [2]: 3.8 nM; GI50 [3]: 172 nM; GI50 [4]: 13 nM; GI50 [5]: 656 nM; GI50 [7]: 11 nM; GI50 [8]: 4.7 nM; GI50 [10]: 40 nM |
| C=C1CCN(c2ccc3ncnc(Nc4ccc(Oc5ccn(C)c(=O)c5)c(C)c4)c3c2)C1=O [Compound 5, 1-methyl-4-(2-methyl-4-[[6-(3-methylidene-2-oxopyrrolidin-1-yl)quinazolin-4-yl]amino]phenoxy)pyridin-2-one] | 7.56 | 236 | < 5.00 | – |
| C=C1CCN(c2ccc3ncnc(Nc4ccc(Oc5cnc(C)cn5)c(C)c4)c3c2)C1=O [Compound 6, 1-[4-([3-methyl-4-[(5-methylpyrazin-2-yl)oxy]phenyl]amino)quinazolin-6-yl]-3-methylidenepyrrolidin-2-one] | 7.79 | > 1000 | < 5.19 | – |
| C=C1CCN(c2ccc3ncnc(Nc4ccc(Oc5ccn6ncnc6c5)c(C)c4)c3c2F)C1=O [Compound 7, 1-[5-fluoro-4-[(3-methyl-4-[[1,2,4]triazolo[1,5-a]pyridin-7-yloxy]phenyl)amino]quinazolin-6-yl]-3-methylidenepyrrolidin-2-one] | 7.50 | > 1000 | < 5.00 | pIC50 [12]: 6.96 |
| C=C1CCN(c2ccc3ncnc(Nc4ccc(Oc5ccn(C(F)F)c(=O)c5)c(C)c4)c3c2)C1=O [Compound 12, 1-(difluoromethyl)-4-(2-methyl-4-[[6-(3-methylidene-2-oxopyrrolidin-1-yl)quinazolin-4-yl]amino]phenoxy)pyridin-2-one] | 7.69 | 113 | 5.12 | – |
| CCOc1cc2ncc(C#N)c(Nc3ccc(OCc4ccccn4)c(Cl)c3)c2cc1NC(=O)/C=C/CN(C)C [Neratinib, neratinib, reference compound] | – | – | – | pIC50 ([6]; BT-474, 72 h): 8.66; pIC50 ([13]; MDA-MB-175-VII, 72 h): 8.15 |
| Cc1cc(Nc2ncnc3ccc(NC4=NC(C)(C)CO4)cc23)ccc1Oc1ccn2ncnc2c1 [Tucatinib, tucatinib, reference compound] | – | – | < 5.00 | GI50 [14]: > 10000 nM; pIC50 ([13]; MDA MB 175VII cells, 72 hours, CellTiter Glo): 7.05 |
